Results from patent US8389541B2, “Inhibitors of protein tyrosine kinase activity” (MethylGene Inc., priority 2007, dated 2013).
Read-outs that look alike come from different tables or passages of the source.

Columns and labels:
Parameters in all cases: species or system mice
HCT116 tumor = experiment: In vivo solid tumor disease model, HCT116; settings: HCT116, 20 mg/kg orally daily, 13 days
MKN45 tumor = experiment: In vivo solid tumor disease model, MKN45; settings: Mus musculus, MKN-45, po, MKN45, 20 mg/kg orally daily, read-out: Tumor Growth Inhibition (%)
U87MG tumor = experiment: In vivo solid tumor disease model, U87MG; settings: Mus musculus, U-87 MG, po, 20 mg/kg orally daily, read-out: Tumor Growth Inhibition (%)
From the text: (§1) This test measures the capacity of compounds to inhibit solid tumor growth.
(§2) Tumor xenografts are established in the flank of female athymic CD1 mice (Charles River Inc.), by subcutaneous injection of 1×106 U87, A431 or SKLMS cells/mouse. Once established, tumors are then serially passaged s.c. in nude mice hosts. Tumor fragments from these host animals are used in subsequent compound evaluation experiments. For compound evaluation experiments female nude mice weighing approximately 20 g are implanted s.c. by surgical implantation with tumor fragments of ˜30 mg from donor tumors. When the tumors are approximately 100 mm3 in size (˜7-10 days following implantation), the animals are randomized and separated into treatment and control groups. Each group contains 6-8 tumor-bearing mice, each of which is ear-tagged and followed individually throughout the experiment.
(§3) Mice are weighed and tumor measurements are taken by calipers three times weekly, starting on Day 1. These tumor measurements are converted to tumor volume by the well-known formula (L+W/4)3 4/3π. The experiment is terminated when the control tumors reach a size of approximately 1500 mm^3. In this model, the change in mean tumor volume for a compound treated group/the change in mean tumor volume of the control group (non-treated or vehicle treated)×100 (ΔT/ΔC) is subtracted from 100 to give the percent tumor growth inhibition (% TGI) for each test compound. In addition to tumor volumes, body weight of animals is monitored twice weekly for up to 3 weeks.

SKLMS40 tumor = experiment: In vivo solid tumor disease model, SKLMS40; settings: Mus musculus, po, 312 h; SKLMS40, 20 mg/kg orally daily, 13 days; read-out: Tumor Growth Inhibition (%)
From the text: as §1, §2, §3

A549 tumor = experiment: In vivo solid tumor disease model, A549; settings: A549, 20 mg/kg orally daily, 12 days
MDAMB231 tumor = experiment: In vivo solid tumor disease model, MDAMB231; settings: MDAMB231, 20 mg/kg orally daily, 13 days
Panc-1 tumor = experiment: In vivo solid tumor disease model, Panc-1; settings: Panc-1, 20 mg/kg orally daily, 13 days
MNNG HOS tumor = experiment: In vivo solid tumor disease model, MNNG HOS; settings: 20 mg/kg orally daily, 6 days
H1437 tumor = experiment: In vivo solid tumor disease model, H1437; settings: H1437, 15 mg/kg orally daily, 16 days
SKLMS tumor = experiment: In vivo solid tumor disease model, SKLMS; settings: 20 mg/kg orally daily, 15 days
From the text: as §1, §2
Mice are weighed and tumor measurements are taken by calipers three times weekly, starting on Day 1. These tumor measurements are converted to tumor volume by the well-known formula (L+W/4)3 4/3π. The experiment is terminated when the control tumors reach a size of approximately 1500 mm^3. […] In addition to tumor volumes, body weight of animals is monitored twice weekly for up to 3 weeks.

COCCNCc1ccc(-c2cc3nccc(Oc4ccc(NC(=O)Nc5cc(C(C)(C)C)on5)cc4F)c3s2)nc1 [drawing 379]
Tumor Growth Inhibition (%) (HCT116 tumor): C (tumor growth inhibition of ≧50% but <75%)

COCCNCc1ccc(-c2cc3nccc(Oc4ccc(NC(=O)C5(C(=O)Nc6ccccc6)CC5)cc4F)c3s2)nc1 [drawing 374]
inhibition in vivo at 20 mg/kg (MKN45 tumor; 312 h, 13 days): ≥ 75% | inhibition in vivo at 20 mg/kg (U87MG tumor; 288 h, 12 days): ≥ 75% | inhibition in vivo at 20 mg/kg (SKLMS40 tumor): 50 to 75% | Tumor Growth Inhibition (%) (A549 tumor): C (tumor growth inhibition of ≧50% but <75%)

COCCNCc1ccc(-c2cc3nccc(Oc4ccc(NC(=O)C5(C(=O)Nc6ccc(F)cc6)CC5)cc4F)c3s2)nc1 [drawing 376]
inhibition in vivo at 20 mg/kg (U87MG tumor; 288 h, 12 days): ≥ 75% | inhibition in vivo at 20 mg/kg (SKLMS40 tumor): ≥ 75% | Tumor Growth Inhibition (%) (MDAMB231 tumor): D D D (tumor growth inhibition of ≧75%)

COCCNCc1ccc(-c2cc3nccc(Oc4ccc(NC(=O)C5(C(=O)Nc6ccc(F)cc6)CC5)cc4F)c3s2)o1
Tumor Growth Inhibition (%) (Panc-1 tumor): D (tumor growth inhibition of ≧75%)

COCCNCc1cccc(-c2cc3nccc(Oc4ccc(NC(=S)NC(=O)Cc5ccc(F)cc5)cc4F)c3s2)c1 [drawing 360]
Tumor Growth Inhibition (%) (MNNG HOS tumor): A (tumor growth inhibition of less than 25%) | inhibition in vivo at 20 mg/kg (MKN45 tumor; 168 h, 7 days): 50 to 75%

COCCNCc1ccc(-c2cc3nccc(Oc4ccc(NC(=O)CC(=O)N(C)c5ccccc5)cc4F)c3s2)nc1 [drawing 373]
inhibition in vivo at 20 mg/kg (MKN45 tumor; 312 h, 13 days): 50 to 75% | inhibition in vivo at 20 mg/kg (U87MG tumor; 288 h, 12 days): 25 to 50% | inhibition in vivo at 20 mg/kg (SKLMS40 tumor): < 25% | Tumor Growth Inhibition (%) (A549 tumor): C (tumor growth inhibition of ≧50% but <75%)

COCCNCc1ccc(-c2cc3nccc(Oc4ccc(NC(=O)NNC(=O)c5ccccc5)cc4F)c3s2)nc1
Tumor Growth Inhibition (%) (Panc-1 tumor): A (tumor growth inhibition of less than 25%)

COCCNCc1ccc(-c2cc3nccc(Oc4ccc(NC(=S)NC(=O)Cc5ccc(F)cc5)c(F)c4)c3s2)nc1
Tumor Growth Inhibition (%) (H1437 tumor): A (tumor growth inhibition of less than 25%)

COCCNCc1ccc(-c2cc3nccc(Oc4ccc(NC(=O)Nc5coc(C)c5)cc4F)c3s2)nc1
inhibition in vivo at 20 mg/kg (U87MG tumor; 312 h, 13 days): ≥ 75% | Tumor Growth Inhibition (%) (SKLMS tumor): D D D (tumor growth inhibition of ≧75%) | Tumor Growth Inhibition (%) (Panc-1 tumor): D D D (tumor growth inhibition of ≧75%)
